Measured values from PubChem BioAssay (NCI).
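Interpolation was linear, between the two tested concentrations surrounding the appropriate level; five concentrations were tested over 48 hours in 96-well plates. Abbreviation: GI50, concentration required for 50% inhibition of growth. At the TGI there is no net growth.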

How the values were obtained:
Assay in all cases: growth of human tumour cells (NCI), 48 h
MDA-MB-435 = test system: MDA-MB-435
MALME-3M melanoma = test system: MALME-3M melanoma
LOX IMVI melanoma = test system: LOX IMVI melanoma
SNB-19 CNS = test system: SNB-19 CNS
NCI-H522 lung = test system: NCI-H522 lung
PC-3 prostate = test system: PC-3 prostate
OVCAR-4 ovarian = test system: OVCAR-4 ovarian
NCI-H226 lung = test system: NCI-H226 lung
UO-31 renal = test system: UO-31 renal
HCC-2998 colon = test system: HCC-2998 colon
CAKI-1 renal = test system: CAKI-1 renal
786-0 renal = test system: 786-0 renal
SF-539 CNS = test system: SF-539 CNS
UACC-62 melanoma = test system: UACC-62 melanoma
SNB-75 CNS = test system: SNB-75 CNS
EKVX NSCLC = test system: EKVX NSCLC
NCI/ADR-RES ovarian = test system: NCI/ADR-RES ovarian
HOP-62 NSCLC = test system: HOP-62 NSCLC
SF-268 CNS = test system: SF-268 CNS
NCI-H460 lung = test system: NCI-H460 lung
HOP-92 NSCLC = test system: HOP-92 NSCLC
COLO 205 colon = test system: COLO 205 colon
RXF 393 renal = test system: RXF 393 renal
SW-620 colon = test system: SW-620 colon
IGROV1 ovarian = test system: IGROV1 ovarian
BT-549 breast = test system: BT-549 breast
A549 NSCLC = test system: A549 NSCLC
M14 melanoma = test system: M14 melanoma
HCT-15 colon = test system: HCT-15 colon
HS 578T breast = test system: HS 578T breast
OVCAR-3 ovarian = test system: OVCAR-3 ovarian
HT29 colon = test system: HT29 colon
T-47D breast = test system: T-47D breast
SK-OV-3 ovarian = test system: SK-OV-3 ovarian
SK-MEL-28 melanoma = test system: SK-MEL-28 melanoma
TK-10 renal = test system: TK-10 renal
MCF7 breast = test system: MCF7 breast
OVCAR-8 ovarian = test system: OVCAR-8 ovarian
A498 renal = test system: A498 renal
CCRF-CEM leukemia = test system: CCRF-CEM leukemia
KM12 colon = test system: KM12 colon
RPMI-8226 leukemia = test system: RPMI-8226 leukemia
DU-145 prostate = test system: DU-145 prostate
ACHN renal = test system: ACHN renal
HCT-116 colon = test system: HCT-116 colon
SK-MEL-5 melanoma = test system: SK-MEL-5 melanoma
MDA-MB-231 breast = test system: MDA-MB-231 breast
SN12C renal = test system: SN12C renal
SF-295 CNS = test system: SF-295 CNS
OVCAR-5 ovarian = test system: OVCAR-5 ovarian
U251 CNS = test system: U251 CNS
UACC-257 melanoma = test system: UACC-257 melanoma
SK-MEL-2 melanoma = test system: SK-MEL-2 melanoma

Clc1ccc2oc3c(NCCCn4ccnc4)c4ccccc4nc3c2c1 gave a GI50 (MDA-MB-435) of 25.9 µM, a TGI (MDA-MB-435) greater than 100 µM and a GI50 (MALME-3M melanoma) of 39.2 µM. The TGI (MALME-3M melanoma) was greater than 100 µM, the GI50 (LOX IMVI melanoma) was 10.4 µM and the TGI (LOX IMVI melanoma) was 39.1 µM. For the same molecule, the GI50 (SNB-19 CNS) was 27.8 µM, the TGI (SNB-19 CNS) was greater than 100 µM and the GI50 (NCI-H522 lung) was 15 µM. It also gave a TGI (NCI-H522 lung) greater than 100 µM, a GI50 (PC-3 prostate) of 24.9 µM and a TGI (PC-3 prostate) greater than 100 µM. For the same molecule, the GI50 (OVCAR-4 ovarian) was 11.8 µM, the TGI (OVCAR-4 ovarian) was 41.2 µM and the GI50 (NCI-H226 lung) was 26.8 µM. The TGI (NCI-H226 lung) was greater than 100 µM, the GI50 (UO-31 renal) was 13.2 µM and the TGI (UO-31 renal) was 67.4 µM. For the same molecule, the GI50 (HCC-2998 colon) was 12.7 µM, the TGI (HCC-2998 colon) was greater than 100 µM and the GI50 (CAKI-1 renal) was 11.4 µM. It also gave a TGI (CAKI-1 renal) greater than 100 µM, a GI50 (786-0 renal) of 16.3 µM and a TGI (786-0 renal) greater than 100 µM. It also gave a GI50 (SF-539 CNS) of 12.8 µM, a TGI (SF-539 CNS) of 28.2 µM and a GI50 (UACC-62 melanoma) of 19.2 µM. It also gave a TGI (UACC-62 melanoma) of 45.5 µM, a GI50 (SNB-75 CNS) of 20.4 µM and a TGI (SNB-75 CNS) greater than 100 µM. It also gave a GI50 (EKVX NSCLC) of 51.7 µM, a TGI (EKVX NSCLC) greater than 100 µM and a GI50 (NCI/ADR-RES ovarian) of 7.77 µM. It also gave a TGI (NCI/ADR-RES ovarian) greater than 100 µM, a GI50 (HOP-62 NSCLC) of 16.6 µM and a TGI (HOP-62 NSCLC) greater than 100 µM. It also gave a GI50 (SF-268 CNS) of 15.2 µM, a TGI (SF-268 CNS) greater than 100 µM and a GI50 (NCI-H460 lung) of 5.26 µM. For the same molecule, the TGI (NCI-H460 lung) was 21.4 µM, the GI50 (HOP-92 NSCLC) was 1.78 µM and the TGI (HOP-92 NSCLC) was 22.7 µM. It also gave a GI50 (COLO 205 colon) of 10.9 µM, a TGI (COLO 205 colon) of 37.7 µM and a GI50 (RXF 393 renal) of 4.65 µM. It also gave a TGI (RXF 393 renal) of 23 µM, a GI50 (SW-620 colon) of 5.13 µM and a TGI (SW-620 colon) greater than 100 µM. It also gave a GI50 (IGROV1 ovarian) of 21.9 µM, a TGI (IGROV1 ovarian) greater than 100 µM and a GI50 (BT-549 breast) of 16.9 µM. It also gave a TGI (BT-549 breast) of 51.4 µM, a GI50 (A549 NSCLC) of 34.6 µM and a TGI (A549 NSCLC) greater than 100 µM. For the same molecule, the GI50 (M14 melanoma) was 28 µM, the TGI (M14 melanoma) was greater than 100 µM and the GI50 (HCT-15 colon) was 11.7 µM. For the same molecule, the TGI (HCT-15 colon) was greater than 100 µM, the GI50 (HS 578T breast) was 22.1 µM and the TGI (HS 578T breast) was greater than 100 µM. It also gave a GI50 (OVCAR-3 ovarian) of 23.8 µM, a TGI (OVCAR-3 ovarian) greater than 100 µM and a GI50 (HT29 colon) of 6.14 µM. The TGI (HT29 colon) was 23.6 µM, the GI50 (T-47D breast) was 36 µM and the TGI (T-47D breast) was greater than 100 µM. For the same molecule, the GI50 (SK-OV-3 ovarian) was greater than 100 µM, the TGI (SK-OV-3 ovarian) was greater than 100 µM and the GI50 (SK-MEL-28 melanoma) was 34.4 µM. The TGI (SK-MEL-28 melanoma) was greater than 100 µM, the GI50 (TK-10 renal) was 79 µM and the TGI (TK-10 renal) was greater than 100 µM. For the same molecule, the GI50 (MCF7 breast) was 16.1 µM, the TGI (MCF7 breast) was greater than 100 µM and the GI50 (OVCAR-8 ovarian) was 12.7 µM. The TGI (OVCAR-8 ovarian) was greater than 100 µM, the GI50 (A498 renal) was greater than 100 µM and the TGI (A498 renal) was greater than 100 µM. It also gave a GI50 (CCRF-CEM leukemia) of 8.66 µM, a TGI (CCRF-CEM leukemia) greater than 100 µM and a GI50 (KM12 colon) of 15.4 µM. For the same molecule, the TGI (KM12 colon) was greater than 100 µM, the GI50 (RPMI-8226 leukemia) was 16.5 µM and the TGI (RPMI-8226 leukemia) was 55.9 µM. It also gave a GI50 (DU-145 prostate) of 23.3 µM, a TGI (DU-145 prostate) greater than 100 µM and a GI50 (ACHN renal) of 4.84 µM. The TGI (ACHN renal) was greater than 100 µM, the GI50 (HCT-116 colon) was 4.48 µM and the TGI (HCT-116 colon) was 31.3 µM. For the same molecule, the GI50 (SK-MEL-5 melanoma) was 80.6 µM, the TGI (SK-MEL-5 melanoma) was greater than 100 µM and the GI50 (MDA-MB-231 breast) was 17.5 µM. For the same molecule, the TGI (MDA-MB-231 breast) was greater than 100 µM, the GI50 (SN12C renal) was 9.75 µM and the TGI (SN12C renal) was greater than 100 µM. For the same molecule, the GI50 (SF-295 CNS) was 17.9 µM, the TGI (SF-295 CNS) was 66.6 µM and the GI50 (OVCAR-5 ovarian) was 24.9 µM. The TGI (OVCAR-5 ovarian) was greater than 100 µM, the GI50 (U251 CNS) was 26.5 µM and the TGI (U251 CNS) was greater than 100 µM. The GI50 (UACC-257 melanoma) was 39.9 µM, the TGI (UACC-257 melanoma) was greater than 100 µM and the GI50 (SK-MEL-2 melanoma) was greater than 100 µM. For the same molecule, the TGI (SK-MEL-2 melanoma) was greater than 100 µM.
